Biological target: TRPV1 (Mus musculus, UniProt Q704Y3)
Experiment: whole-cell patch clamp, inhibition of capsaicin
Type: cell-based

TRPV1, sequence (Q704Y3 whole entry): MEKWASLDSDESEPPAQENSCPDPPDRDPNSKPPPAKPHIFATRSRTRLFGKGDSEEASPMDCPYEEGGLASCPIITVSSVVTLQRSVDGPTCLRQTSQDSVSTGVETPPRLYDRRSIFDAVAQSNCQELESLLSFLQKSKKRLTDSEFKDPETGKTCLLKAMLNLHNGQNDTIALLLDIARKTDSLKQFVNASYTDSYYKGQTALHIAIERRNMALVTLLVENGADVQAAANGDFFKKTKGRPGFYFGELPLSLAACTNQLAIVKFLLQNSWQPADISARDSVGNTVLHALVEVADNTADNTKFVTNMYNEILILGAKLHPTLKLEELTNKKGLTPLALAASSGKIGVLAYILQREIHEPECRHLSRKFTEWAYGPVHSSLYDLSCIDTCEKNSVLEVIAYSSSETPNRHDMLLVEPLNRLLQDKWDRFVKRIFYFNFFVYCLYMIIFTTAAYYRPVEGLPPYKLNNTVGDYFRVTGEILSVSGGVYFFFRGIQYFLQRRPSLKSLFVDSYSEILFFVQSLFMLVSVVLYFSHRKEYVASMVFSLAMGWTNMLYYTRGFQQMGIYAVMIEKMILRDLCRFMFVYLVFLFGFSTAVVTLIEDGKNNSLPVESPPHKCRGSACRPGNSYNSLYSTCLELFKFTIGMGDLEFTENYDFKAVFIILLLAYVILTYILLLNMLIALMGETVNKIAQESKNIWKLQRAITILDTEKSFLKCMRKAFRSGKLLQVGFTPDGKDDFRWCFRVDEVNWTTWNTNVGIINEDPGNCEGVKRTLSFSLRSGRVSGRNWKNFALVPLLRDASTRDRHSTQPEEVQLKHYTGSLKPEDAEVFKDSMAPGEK

IC50: 163 nM
SMILES: CC(C)(C)c1ccc(/C=C/C(=O)Nc2ccc3c(c2)OCCO3)cc1 [AMG9810]
